This assay concerns the target human P2X3 receptor (Homo sapiens (Human), UniProt P56373). The assay is described as follows: Evaluation of human P2X3 receptor inhibitory activity (Fluo-3 calcium fluorescence, FDSS 3000, ATP stimulation).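 Further: stimulus was 50 nM ATP with fluorescence followed for 3 min, and the response per well was peak post-ATP fluorescence divided by the reading at measurement start.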 It counts as cell-based.
Setting [1] is: human P2X3 receptor, Test Example 1.
The mark [2] stands for this setting: C6BU-1 cells stably expressing human P2X3 receptor, Fluo-3 fluorescence, FDSS 3000.

Sequence of human P2X3 receptor (P56373 whole entry): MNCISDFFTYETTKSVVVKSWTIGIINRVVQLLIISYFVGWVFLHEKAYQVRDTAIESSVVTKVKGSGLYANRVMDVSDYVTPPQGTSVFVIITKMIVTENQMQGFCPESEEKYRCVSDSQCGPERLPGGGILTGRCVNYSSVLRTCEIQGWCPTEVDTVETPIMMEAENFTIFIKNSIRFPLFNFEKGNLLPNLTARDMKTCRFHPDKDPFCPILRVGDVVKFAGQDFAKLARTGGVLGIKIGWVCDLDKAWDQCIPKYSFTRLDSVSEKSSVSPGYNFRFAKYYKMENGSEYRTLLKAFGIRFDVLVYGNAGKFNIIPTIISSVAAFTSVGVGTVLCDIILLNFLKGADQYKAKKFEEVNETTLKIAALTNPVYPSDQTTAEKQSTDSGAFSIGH

In the case of `Cc1ccc(/N=c2\[nH]c(=O)n(C[C@H](C)C(=O)O)c(=O)n2Cc2ccc(Cl)cc2)cc1C(F)(F)F` [Compound I-0843], the half-maximal inhibitory concentration (IC50) under setting [1] came out at 0.183 µM.
On the same count and under the same terms, the value for `CC(C)Oc1ccc(/N=c2\[nH]c(=O)n(CC(C)(C)CC(=O)O)c(=O)n2Cc2ccc(Cl)cc2)cc1F` [Compound I-0845] was 0.024 µM; that for `COC(=O)[C@@H](C)Cn1c(=O)[nH]/c(=N\c2ccc(OCC(F)F)cc2)n(Cc2ccc(Cl)cc2)c1=O` [Compound I-0846] was 0.035 µM; that for `COC(=O)[C@@H](C)Cn1c(=O)[nH]/c(=N\c2ccc(OCC(F)F)cc2)n(Cc2ccc(C)cc2)c1=O` [Compound I-0847] was 0.031 µM.
Same read-out and setting: to `C[C@@H](Cn1c(=O)[nH]/c(=N\c2ccc(OCC(F)F)cc2)n(Cc2ccc(Cl)cc2)c1=O)C(=O)O` [Compound I-0848] belongs 0.06 µM; to `Cc1ccc(Cn2c(=O)n(C[C@H](C)C(=O)O)c(=O)[nH]/c2=N\c2ccc(OCC(F)F)cc2)cc1` [Compound I-0849], 0.078 µM.
Same read-out and setting: to `Cc1cc(/N=c2\[nH]c(=O)n([C@H]3CC[C@H](C(=O)O)CC3)c(=O)n2Cc2ccc(Cl)cc2)ccc1OC(C)C` [Compound I-0850] belongs 0.062 µM; to `Cc1cc(/N=c2\[nH]c(=O)n([C@H]3CC[C@@H](C(=O)O)CC3)c(=O)n2Cc2ccc(Cl)cc2)ccc1OC(C)C` [Compound I-0851], 0.024 µM; to `Cc1cc(/N=c2\[nH]c(=O)n(C[C@H](O)C(=O)O)c(=O)n2Cc2ccc(Cl)cc2)ccc1OC(C)C` [Compound I-0852, (S)-1-(4-chlorobenzyl)-6-(3-mehyl-4-isopropoxyphenylimino)-3-(2-hydroxycarbonyl-2-hydroxyethyl)-1,3,5-triazinane-2,4-dion], 0.038 µM.
In the case of `CC[C@@H](C)Oc1ccc(/N=c2\[nH]c(=O)n(C[C@H](C)C(=O)O)c(=O)n2Cc2ccc(C)cc2)cc1C` [Compound I-0853], the half-inhibitory concentration (IC50) under setting [1] amounted to 0.013 µM.
Regarding `CC[C@@H](C)Oc1ccc(/N=c2\[nH]c(=O)n(C[C@H](C)C(=O)O)c(=O)n2Cc2ccc(C)cc2)cc1` [Compound I-0854], the IC50 under setting [1] was determined as 0.032 µM.
Still for that read-out and setting: to `CCOC(=O)C(F)(F)Cn1c(=O)[nH]/c(=N\c2ccc(OC(C)C)c(C)c2)n(Cc2ccc(C)cc2)c1=O` [Compound I-0855] belongs 0.01 µM; to `CCOC(=O)C(F)(F)Cn1c(=O)[nH]/c(=N\c2ccc(OCC)c(Cl)c2)n(Cc2ccc(C)cc2)c1=O` [Compound I-0856], 0.012 µM.
For the molecule `Cc1ccc(Cn2c(=O)n(CC(F)(F)C(=O)O)c(=O)[nH]/c2=N\c2ccc(OC(C)C)c(C)c2)cc1` [Compound I-0857], under setting [1], the IC50 is 0.019 µM.
As for `CCOc1ccc(/N=c2\[nH]c(=O)n(CC(F)(F)C(=O)O)c(=O)n2Cc2ccc(C)cc2)cc1Cl` [Compound I-0858], the IC50 under setting [1] came to 0.022 µM.
Consider `CCCOc1ccc(/N=c2\[nH]c(=O)n(CC(F)(F)C(=O)OCC)c(=O)n2Cc2ccc(C)cc2)cc1` [Compound I-0859], for which, under setting [1], the IC50 stood at 0.017 µM.
In the case of `COC(=O)[C@@H](C)Cn1c(=O)[nH]/c(=N\c2ccc(CC(C)C)cc2)n(Cc2ccc(C)cc2)c1=O` [Compound I-0860], the IC50 under setting [1] came out at 0.062 µM.
For `CCCOc1ccc(/N=c2\[nH]c(=O)n(CCCC(=O)OCC)c(=O)n2Cc2ccc(C)cc2)cc1Cl` [Compound I-0861], the IC50 under setting [1] is 0.019 µM.
The same measure, in the same setting: the value for `CCOC(=O)CCCn1c(=O)[nH]/c(=N\c2ccc(OCC)c(Cl)c2)n(Cc2ccc(C)cc2)c1=O` [Compound I-0862] was 0.01 µM.
The same measure, in the same setting: to `Cc1ccc2cc(/N=c3\[nH]c(=O)n(C[C@H](C)C(=O)O)c(=O)n3Cc3ccc(Cl)cc3)ccc2n1` [Compound I-0864] belongs 0.035 µM.
Take `COC(=O)[C@@H](C)Cn1c(=O)[nH]/c(=N\c2ccc(OC(C)C)c(C)c2)n(Cc2ccc(Br)cc2)c1=O` [Compound I-0865]: the IC50 under setting [1] was determined as 0.017 µM.
As to `CCOC(=O)CCn1c(=O)[nH]/c(=N\c2ccc(OC(C)C)c(Cl)c2)n(Cc2ccc(C)cc2)c1=O` [Compound I-0866, 6-(3-chloro-4-isopropoxyphenylamino)-3-(2,3-ethoxycarbonylethyl)-1-(4-methylbenzyl)-1,3,5-triazinane-2,4-dion], the half-maximal inhibitory concentration (IC50) under setting [1] came out at 0.002 µM.
On the same count and under the same terms, to `CCOC(=O)CCn1c(=O)[nH]/c(=N\c2ccc(OCC)c(Cl)c2)n(Cc2ccc(C)cc2)c1=O` [Compound I-0867] belongs 0.006 µM.
Consider `Cc1cc(/N=c2\[nH]c(=O)n(C[C@H](C)C(=O)O)c(=O)n2Cc2ccc(Br)cc2)ccc1OC(C)C` [Compound I-0868], for which the IC50 under setting [1] worked out at 0.023 µM.
In the case of `CNC(=O)[C@H](CCO)n1c(=O)[nH]/c(=N\c2ccc(OC(C)C)c(C)c2)n(Cc2ccc(Cl)cc2)c1=O` [Compound I-0869], under setting [1], the IC50 was determined as 0.574 µM.
`CNC(=O)[C@@H](CCO)n1c(=O)[nH]/c(=N\c2ccc(OC(C)C)c(C)c2)n(Cc2ccc(Cl)cc2)c1=O` [Compound I-0870]: the half-maximal inhibitory concentration (IC50) under setting [1] worked out at 0.53 µM.
With `CCCOc1ccc(/N=c2\[nH]c(=O)n(CC(F)(F)C(=O)O)c(=O)n2Cc2ccc(C)cc2)cc1` [Compound I-0871], under setting [1], the IC50 stood at 0.04 µM.
Consider `Cc1ccc(Cn2c(=O)n(C[C@H](C)C(=O)O)c(=O)[nH]/c2=N\c2ccc(CC(C)C)cc2)cc1` [Compound I-0872], for which, under setting [1], the IC50 is 0.081 µM.
Still for that read-out and setting: to `CCCOc1ccc(/N=c2\[nH]c(=O)n(CCCC(=O)O)c(=O)n2Cc2ccc(C)cc2)cc1Cl` [Compound I-0873] belongs 0.047 µM; to `CCOc1ccc(/N=c2\[nH]c(=O)n(CCCC(=O)O)c(=O)n2Cc2ccc(C)cc2)cc1Cl` [Compound I-0874], 0.086 µM.
With `COC(=O)C[C@@H](C)n1c(=O)[nH]/c(=N\c2ccc(OC(C)C)c(Cl)c2)n(Cc2ccc(C)cc2)c1=O` [Compound I-0875], the IC50 under setting [1] is 0.014 µM.
For `CCOc1ccc(/N=c2\[nH]c(=O)n([C@H](C)CC(=O)OC)c(=O)n2Cc2ccc(C)cc2)cc1Cl` [Compound I-0876], the IC50 under setting [1] came out at 0.023 µM.
As for `CCCOc1ccc(/N=c2\[nH]c(=O)n([C@H](C)CC(=O)OC)c(=O)n2Cc2ccc(C)cc2)cc1Cl` [Compound I-0877], the IC50 under setting [1] was found to be 0.028 µM.
`Cc1ccc(Cn2c(=O)n([C@H](C)CC(=O)O)c(=O)[nH]/c2=N\c2ccc(OC(C)C)c(Cl)c2)cc1` [Compound I-0878]: the IC50 under setting [1] came to 0.022 µM.
With `CCOc1ccc(/N=c2\[nH]c(=O)n([C@H](C)CC(=O)O)c(=O)n2Cc2ccc(C)cc2)cc1Cl` [Compound I-0879], the 50% inhibitory concentration (IC50) under setting [1] turned out to be 0.058 µM.
On to `CCCOc1ccc(/N=c2\[nH]c(=O)n([C@H](C)CC(=O)O)c(=O)n2Cc2ccc(C)cc2)cc1Cl` [Compound I-0880], for which, under setting [1], the IC50 came out at 0.049 µM.
On to `CO/N=C/c1ccc(/N=c2\[nH]c(=O)n(C[C@H](C)C(=O)OC)c(=O)n2Cc2ccc(Cl)cc2)cc1F` [Compound I-0881, (S)-1-(4-chlorobenzyl)-6-(3-fluoro-4-methoxyiminomethylphenylimino)-3-(2-methoxycarbonylpropyl)-1,3,5-triazinane-2,4-dion], for which the IC50 under setting [1] worked out at 0.127 µM.
`CCOc1ccc(/N=c2\[nH]c(=O)n(CCC(=O)O)c(=O)n2Cc2ccc(C)cc2)cc1Cl` [Compound I-0882]: the IC50 under setting [1] turned out to be 0.1 µM.
Regarding `CCCOc1ccc(/N=c2\[nH]c(=O)n(C[C@H](CC)C(=O)OC)c(=O)n2Cc2ccc(C)cc2)cc1` [Compound I-0883], the IC50 under setting [1] amounted to 0.024 µM.
In the case of `CC[C@@H](Cn1c(=O)[nH]/c(=N\c2ccc(OC(C)C)c(C)c2)n(Cc2ccc(C)cc2)c1=O)C(=O)OC` [Compound I-0884], the IC50 under setting [1] is 0.016 µM.
For the molecule `CCCOc1ccc(/N=c2\[nH]c(=O)n(C[C@H](CC)C(=O)O)c(=O)n2Cc2ccc(C)cc2)cc1` [Compound I-0885], under setting [1], the IC50 came out at 0.087 µM.
Turning to `CC[C@@H](Cn1c(=O)[nH]/c(=N\c2ccc(OC(C)C)c(C)c2)n(Cc2ccc(C)cc2)c1=O)C(=O)O` [Compound I-0886], under setting [1], the IC50 worked out at 0.076 µM.
With `CC[C@@H](Cn1c(=O)[nH]/c(=N\c2ccc(OC(C)C)c(C)c2)n(Cc2ccc(Cl)cc2)c1=O)C(=O)OC` [Compound I-0887], under setting [1], the IC50 was determined as 0.023 µM.
For `CCCOc1ccc(/N=c2\[nH]c(=O)n(C[C@H](CC)C(=O)OC)c(=O)n2Cc2ccc(Cl)cc2)cc1` [Compound I-0888], under setting [1], the IC50 is 0.03 µM.
Still for that read-out and setting: to `CC[C@@H](Cn1c(=O)[nH]/c(=N\c2ccc(OC(C)C)c(C)c2)n(Cc2ccc(Cl)cc2)c1=O)C(=O)O` [Compound I-0889] belongs 0.053 µM.
The same measure, in the same setting: the value for `CCCOc1ccc(/N=c2\[nH]c(=O)n(C[C@H](CC)C(=O)O)c(=O)n2Cc2ccc(Cl)cc2)cc1` [Compound I-0890] was 0.032 µM.
On the same count and under the same terms, the value for `C=Cc1ccc(Cn2c(=O)n(C[C@H](C)C(=O)OC)c(=O)[nH]/c2=N\c2ccc(OC(C)C)c(C)c2)cc1` [Compound I-0892, (S)-1-(4-vinylbenzyl)-6-(3-mehyl-4-isopropoxyphenylimino)-3-(2-methoxycarbonylpropyl)-1,3,5-triazinane-2,4-dion] was 0.018 µM; that for `CO/N=C/c1ccc(/N=c2\[nH]c(=O)n(C[C@H](C)C(=O)O)c(=O)n2Cc2ccc(Cl)cc2)cc1F` [Compound I-0893, (S)-1-(4-chlorobenzyl)-6-(3-fluoro-4-methoxyiminomethylphenylimino)-3-(2-hydroxycarbonylpropyl)methyl-1,3,5-triazinane-2,4-dion] was 0.202 µM.
In the case of `CCc1ccc(Cn2c(=O)n(C[C@H](C)C(=O)OC)c(=O)[nH]/c2=N\c2ccc(OC(C)C)c(C)c2)cc1` [Compound I-0894, (S)-1-(4-ethylbenzyl)-6-(3-mehyl-4-isopropoxyphenylimino)-3-(2-methoxycarbonylpropyl)-1,3,5-triazinane-2,4-dion], under setting [1], the half-inhibitory concentration (IC50) was 0.028 µM.
On to `C=Cc1ccc(Cn2c(=O)n(C[C@H](C)C(=O)O)c(=O)[nH]/c2=N\c2ccc(OC(C)C)c(C)c2)cc1` [Compound I-0897, (S)-1-(4-vinylbenzyl)-6-(3-mehyl-4-isopropoxyphenylimino)-3-(2-hydroxycarbonylpropyl)-1,3,5-triazinane-2,4-dion], for which, under setting [2], the half-inhibitory concentration (IC50) was 0.025 µM.
The same measure, in the same setting: the value for `CCc1ccc(Cn2c(=O)n(C[C@H](C)C(=O)O)c(=O)[nH]/c2=N\c2ccc(OC(C)C)c(C)c2)cc1` [Compound I-0898, (S)-1-(4-ethylbenzyl)-6-(3-mehyl-4-isopropoxyphenylimino)-3-(2-hydroxycarbonylpropyl)-1,3,5-triazinane-2,4-dion] was 0.02 µM.

As usually defined, the IC50 is the concentration at which inhibition is half-maximal.

These data come from US9718790B2, “Triazine derivative and pharmaceutical composition having an analgesic activity comprising the same” (SHIONOGI & CO., LTD., priority 2010, dated 2017).
